# Source: publication PMC6045899 (International Journal of Nanomedicine, 2018)
# What was measured:
# [1] = system: PC cells (primary cardiac cells); experiment: In vitro cytotoxicity, MTT bioassay; assay type: cell-based, Wistar rats; conditions: 1–200 μM, 24 h
# AMI rats = system: AMI rats; design: species or system Sprague Dawley rats; conditions: rat, in vivo, 50 mg/kg
# [2] = In vivo pharmacokinetics after iv administration in AMI rats; conditions: plasma concentration–time profile
compound,measurement,setting,value
"Cc1coc2c1C(=O)C(=O)c1c-2ccc2c1CCCC2(C)C [Free TN, tanshinone IIA]",in vitro cytotoxicity (in words),[1],obvious higher cytotoxicity than the nanocarriers in high concentrations (100 and 200 μM)
same,infarct size (percentage of whole size of the left ventricle),AMI rats,51%±1.8%
same,time within which cleared from the circulation,[2],≤ 6 h
